Experimental data reported in patent US8420811B2, “Tetrahydroisoquinolines and intermediates therefor” (Bristol-Myers Squibb Company, priority 2008, dated 2013).
Values after ≈ are worked out from the molar mass of the structure shown.

Legend:
Format in all cases: physicochemical
[1] = pH-Solubility profile (aqueous solubility); details: for solubility: aqueous solution, aqueous buffer
[2] = Solubility profile (USP definition) in solvents
[3] = pKa
[4] = Solution pH; details: at about 1 μg/mL concentration in water
[5] = Distribution coefficient

Which results are given for `CN1Cc2cc(-c3ccc(N)nn3)ccc2[C@H](c2ccc3ccccc3c2)C1` [Compound 2, (S)-6-(2-methyl-4-(naphthalen-2-yl)-1,2,3,4-tetrahydroisoquinolin-7-yl)pyridazin-3-amine]?
solubility ([1]; at pH 2.0): 15600 µg/mL (≈ 42.6 mM); solubility ([1]; at pH 4.4): 1760 µg/mL (≈ 4.8 mM); solubility ([1]; at solution pH 6.5 and above): ≤ 1 µg/mL

Which “Solubility profile (USP definition)” value ([2]; N,N-dimethylacetamide) does the source give for `CN1Cc2cc(-c3ccc(N)nn3)ccc2[C@H](c2ccc3ccccc3c2)C1` [Form N-1, 6-[(4S)-1,2,3,4-tetrahydro-2-methyl-4-(2-naphthalenyl)-7-isoquinolinyl]-3-pyridazinamine] here?
The value was “soluble: N,N-dimethylacetamide, dimethylsulfoxide”.

What about the “Solubility profile (USP definition)” value ([2]; PEG 400) of the same compound?
Its value is “sparingly soluble: PEG 400”.

What about the “Solubility profile (USP definition)” value ([2]; acetone) of the same compound?
Its value is “slightly soluble: isopropanol, acetone, ethanol, methanol”.

And the “Solubility profile (USP definition)” value ([2]; acetonitrile)?
The value was “very slightly soluble: acetonitrile, ethyl acetate, n-butanol”.

What about the “Solubility profile (USP definition)” value ([2]; dichloromethane) of the same compound?
Its value is “slightly soluble: isopropanol, acetone, ethanol, methanol”.

And the “Solubility profile (USP definition)” value ([2]; dimethylsulfoxide)?
The value was “soluble: N,N-dimethylacetamide, dimethylsulfoxide”.

And the “Solubility profile (USP definition)” value ([2]; ethanol)?
The value was “slightly soluble: isopropanol, acetone, ethanol, methanol”.

And the “Solubility profile (USP definition)” value ([2]; ethyl acetate)?
The value was “very slightly soluble: acetonitrile, ethyl acetate, n-butanol”.

What about the “Solubility profile (USP definition)” value ([2]; isopropanol) of the same compound?
The value was “slightly soluble: isopropanol, acetone, ethanol, methanol”.

What about the “Solubility profile (USP definition)” value ([2]; methanol) of the same compound?
The value was “slightly soluble: isopropanol, acetone, ethanol, methanol”.

And the “Solubility profile (USP definition)” value ([2]; n-butanol)?
The value was “very slightly soluble: acetonitrile, ethyl acetate, n-butanol”.

What about the “Solubility profile (USP definition)” value ([2]; n-heptane) of the same compound?
Its value is “practically insoluble: n-heptane”.

What about the “Solubility profile (USP definition)” value ([2]; propylene glycol) of the same compound?
Its value is “slightly soluble: isopropanol, acetone, ethanol, methanol”.

What about the “Solubility profile (USP definition)” value ([2]; tetrahydrofuran) of the same compound?
The value was “freely soluble: tetrahydrofuran”.

And the “aqueous solubility (in words)” value ([1]; general statement, no pH given)?
Its value is “high aqueous solubility”.

And the pKa ([3]; first of two printed pKa values)?
Its pKa is 4.9.

And the pKa ([3]; second of two printed pKa values)?
Its pKa is 7.8.

And the “Solution pH” value [4]?
The value was ~7.0 at about 1 μg/mL concentration in water.

What about the “Distribution coefficient Log Do/b” value ([5]; at pH 6.5) of the same compound?
The value was 3.10.

What about the “Distribution coefficient Log Do/b” value ([5]; at pH 7.4) of the same compound?
The value was 3.82.
